Test results from paper PMC12862769 (ACS infectious diseases, 2025).
Read-outs that look alike come from different tables or passages of the source.

Tests used:
E. faecium NR-31954 = test: MIC assay; type: cell-based
[1] = test system: Staphylococcus epidermidis NRS101; test: MIC assay; type: cell-based; settings: no CAs, expresses MpsAB homologs
E. faecium ATCC 700221 = test: MIC assay; type: cell-based
E. faecium NR-28978 = settings: cited from earlier work
E. faecalis HM-335 = settings: cited from earlier work
E. faecium NR-32065 = settings: cited from earlier work
E. faecalis NR-31970 = test: MIC assay; type: cell-based
[2] = test system: E. saccharolyticus ATCC 43076; test: MIC assay; type: cell-based
E. faecium NR-31909 [3] = test: MIC assay; type: cell-based
E. faecalis HM-201 = test: MIC assay; type: cell-based
E. hirae ATCC 10541 = test: MIC assay; type: cell-based
E. faecalis NR-31972 = settings: cited from earlier work
E. faecium NR-31912 = test: MIC assay; type: cell-based
E. faecium NR-31916 = settings: cited from earlier work
E. faecium NR-32053 = test: MIC assay; type: cell-based
E. faecium NR-32094 = test: MIC assay; type: cell-based
E. faecium NR-31933 = test: MIC assay; type: cell-based
E. faecium NR-31903 = settings: cited from earlier work
[4] = test system: α-Carbonic anhydrase (Q3XYE8); settings: lysates pre-incubated with 100 μM free inhibitor, compared to Biotin-AZM; α-CA
E. faecium HM-965 = test: MIC assay; type: cell-based
E. faecalis NR-31971 = settings: cited from earlier work
[5] = test system: all tested Enterococcus strains; test: MIC assay, all tested Enterococcus strains; type: cell-based
E. faecium NR-31937 = test: MIC assay; type: cell-based
[6] = test system: E. faecalis and E. faecium strains; test: MIC assay, panel of 25 E. faecalis and E. faecium strains; type: cell-based; settings: ambient air
[7] = test system: Bacillus subtilis ATCC11774; test: MIC assay; type: cell-based; settings: encodes both MpsAB and CAs
E. faecium NR-32052 = settings: cited from earlier work
E. raffinosus ATCC 49464 = test: MIC assay; type: cell-based
E. durans ATCC 11576 = test: MIC assay; type: cell-based
E. faecium HM-952 = test: MIC assay; type: cell-based
E. faecalis HM-334 = settings: cited from earlier work
[8] = test system: E. casseliflavus ATCC 700327; test: MIC assay; type: cell-based
E. avium ATCC 14025 = test: MIC assay; type: cell-based
E. faecium α-CA = test: in vitro inhibition of bacterial α-CA; type: biochemical
[9] = test system: Staphylococcus aureus USA300; test: MIC assay; type: cell-based; settings: no CAs, expresses MpsAB homologs
E. faecium HM-968 = settings: cited from earlier work
[10] = test system: Listeria Monocytogenes ATCC 19111; test: MIC assay; type: cell-based; settings: encodes only α-CA, no MpsAB homologs
E. faecium NR-31914 = settings: cited from earlier work
E. faecalis HM-934 = test: MIC assay; type: cell-based
E. gallinarum ATCC 49373 = test: MIC assay; type: cell-based
E. faecium NR-31909 [11] = test: E. faecium septicemic peritonitis mouse model; type: in vivo, BALB/c mice
E. faecium HM-970 = test: MIC assay; type: cell-based
mouse gut microbiome = test: Mouse gut microbiome diversity in fecal pellets; type: in vivo, C57BL/6 mice; settings: same regimens; day −1 vs day 7 (and 14)

CC(=O)Nc1nnc(S(N)(=O)=O)s1 [AZM, acetazolamide]
72.0 µM: MIC ([8]; ambient air at 37° C) | MIC (E. avium ATCC 14025; ambient air at 37° C)
2.25 µM: MIC (E. durans ATCC 11576; ambient air at 37° C)
at least 2 Log10 CFU/mL: reduction of VRE bioburden compared to vehicle (E. faecium NR-31909 [11]; kidney, liver and spleen, each tissue, 20 mg/kg PO QD three days)
> 288 µM: MIC (E. faecium NR-31954; 5% CO2 atmosphere at 37° C) | MIC (E. faecium ATCC 700221; 5% CO2 atmosphere at 37° C) | MIC (E. faecium NR-28978; 5% CO2 atmosphere at 37° C) | MIC (E. faecalis HM-335; 5% CO2 atmosphere at 37° C) | MIC (E. faecium NR-32065; 5% CO2 atmosphere at 37° C) | MIC (E. faecalis NR-31970; 5% CO2 atmosphere at 37° C) | MIC ([2]; 5% CO2 atmosphere at 37° C) | MIC (E. faecium NR-31909 [3]; 5% CO2 atmosphere at 37° C) | MIC (E. faecalis HM-201; 5% CO2 atmosphere at 37° C) | MIC (E. hirae ATCC 10541; 5% CO2 atmosphere at 37° C) | MIC (E. faecalis NR-31972; 5% CO2 atmosphere at 37° C) | MIC (E. faecium NR-31912; 5% CO2 atmosphere at 37° C) | MIC (E. faecium NR-31916; 5% CO2 atmosphere at 37° C) | MIC (E. faecium NR-32053; 5% CO2 atmosphere at 37° C) | MIC (E. faecium NR-32094; 5% CO2 atmosphere at 37° C) | MIC (E. faecium NR-31933; 5% CO2 atmosphere at 37° C) | MIC (E. faecium NR-31903; 5% CO2 atmosphere at 37° C) | MIC (E. faecium HM-965; 5% CO2 atmosphere at 37° C) | MIC (E. faecalis NR-31971; 5% CO2 atmosphere at 37° C) | MICs in the presence of CO2 ([5]; all Enterococcus species, 5% CO2) | MIC (E. faecium NR-31937; 5% CO2 atmosphere at 37° C) | MIC (E. faecium NR-32052; 5% CO2 atmosphere at 37° C) | MIC (E. raffinosus ATCC 49464; 5% CO2 atmosphere at 37° C) | MIC (E. durans ATCC 11576; 5% CO2 atmosphere at 37° C) | MIC (E. faecium HM-952; 5% CO2 atmosphere at 37° C) | MIC (E. faecalis HM-334; 5% CO2 atmosphere at 37° C) | MIC ([8]; 5% CO2 atmosphere at 37° C) | MIC (E. avium ATCC 14025; 5% CO2 atmosphere at 37° C) | MIC (E. faecium HM-968; 5% CO2 atmosphere at 37° C) | MIC (E. faecium NR-31914; 5% CO2 atmosphere at 37° C) | MIC (E. faecalis HM-934; 5% CO2 atmosphere at 37° C) | MIC (E. gallinarum ATCC 49373; 5% CO2 atmosphere at 37° C) | MIC (E. faecium HM-970; 5% CO2 atmosphere at 37° C)
> 99%: reduction of VRE bioburden (E. faecium NR-31909 [11]; kidney, liver and spleen, three-day treatment)
>500 µM: MIC ([1]; 5% CO2 atmosphere at 37° C) | MIC ([1]; ambient air at 37° C) | MIC ([7]; 5% CO2 atmosphere at 37° C) | MIC ([7]; ambient air at 37° C) | MIC ([9]; 5% CO2 atmosphere at 37° C) | MIC ([9]; ambient air at 37° C) | MIC ([10]; 5% CO2 atmosphere at 37° C)
18 µM: Ef MIC90 ([6]; inhibited 90% of the tested E. faecalis and E. faecium strains)
> 5 fold: potency against α-CA over γ-CA based on Ki (E. faecium α-CA)
4.50 µM: MIC (E. faecium NR-32065; ambient air at 37° C) | MIC ([2]; ambient air at 37° C) | MIC (E. faecium NR-32053; ambient air at 37° C) | MIC (E. faecium HM-965; ambient air at 37° C)
−7.88: Log2 (FC) [4]
72 µM: MIC ([10]; ambient air at 37° C)
66.7%: survival (mice rescued) (E. faecium NR-31909 [11]; 20 mg/kg PO once-daily for three days, n = 6/group)
9.01 µM: MIC (E. faecium ATCC 700221; ambient air at 37° C) | MIC (E. faecium NR-28978; ambient air at 37° C) | MIC (E. faecalis HM-335; ambient air at 37° C) | MIC (E. faecium NR-31909 [3]; ambient air at 37° C) | MIC (E. faecalis NR-31972; ambient air at 37° C) | MIC (E. faecium NR-31912; ambient air at 37° C) | MIC (E. faecium NR-31916; ambient air at 37° C) | MIC (E. faecium NR-32094; ambient air at 37° C) | MIC (E. faecium NR-31933; ambient air at 37° C) | MIC (E. faecium NR-31903; ambient air at 37° C) | MIC (E. faecalis NR-31971; ambient air at 37° C) | All Enterococci spp. MIC50 ([5]; inhibited 50% of all tested Enterococcus strains, ambient air) | MIC (E. faecium NR-31937; ambient air at 37° C) | Ef MIC50 ([6]; inhibited 50% of the tested E. faecalis and E. faecium strains) | MIC (E. faecium NR-32052; ambient air at 37° C) | MIC (E. faecium HM-952; ambient air at 37° C) | MIC (E. faecalis HM-334; ambient air at 37° C) | MIC (E. faecium HM-968; ambient air at 37° C) | MIC (E. faecium NR-31914; ambient air at 37° C) | MIC (E. faecalis HM-934; ambient air at 37° C) | MIC (E. faecium HM-970; ambient air at 37° C)
18.0 µM: MIC (E. faecalis NR-31970; ambient air at 37° C) | MIC (E. faecalis HM-201; ambient air at 37° C)
36.0 µM: MIC (E. faecium NR-31954; ambient air at 37° C) | MIC (E. hirae ATCC 10541; ambient air at 37° C) | All Enterococci spp. MIC90 ([5]; inhibited 90% of all tested Enterococcus strains, ambient air) | MIC (E. raffinosus ATCC 49464; ambient air at 37° C) | MIC (E. gallinarum ATCC 49373; ambient air at 37° C)

CCC[C@@H]1C[C@@H](C(=O)N[C@@H]([C@H]2O[C@H](SC)[C@H](O)[C@@H](O)[C@H]2O)[C@H](C)Cl)N(C)C1 [clindamycin]
significant change: change in beta diversity (Bray-Curtis dissimilarity), pre- vs post-treatment (mouse gut microbiome)
